The source of these data is patent US20230150951A1, “2,5- OR 2,6-DISUBSTITUTED HYDROQUINONE DERIVATIVES WITH AT LEAST ONE CARBOXY, SULFO OR AMIDO GROUP USEFUL AS MEDICAMENTS” (OM PHARMA SA, priority 2020, published 2023).

Holding throughout (type): cell-based
The test system of test [1] is Human neutrophils. Put plainly: Neutrophil adhesion under static conditions. The note with it: fMLP-stimulated adhesion to fibrinogen; method: 40 μM and 80 μM, concentration of the value not stated. The gist of the method:
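Donor buffy-coat neutrophils (3×10^6/ml, PBS with Ca/Mg, 10% FCS, pH 7.2) preincubated 30 min at 37° C with 40 μM or 80 μM compound, then stimulated 1 min at 37° C with 1 nM fMLP on fibrinogen-coated glass. Adherent cells fixed and counted by computer; mean ± SD, unpaired t-test.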

Test [2] deals with Human neutrophils. Put plainly: Inhibition of ROS production in human neutrophils (isoluminol chemiluminescence). The conditions noted are these: Homo sapiens, Neutrophil, fMLP+TNF-α stimulated PMN. Put shortly:
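Extracellular ROS measured as isoluminol-amplified chemiluminescence following 1 μM fMLP activation on fibrinogen-coated plates, readings every 25 sec over 250 sec minus HBSS/isoluminol background. Beforehand, cells were treated with compounds at 0.1, 0.3, 1, 3 or 10 μM (30 min, 37° C) and TNF-α (20 ng/ml, 10 min); duplicate or triplicate.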

For the next test, the target named is T1, VEGF-A (Homo sapiens, UniProt P15692).
T1 construct: purchased ProQinase GmbH
T1 sequence (P15692 27-191 isoform P15692-4): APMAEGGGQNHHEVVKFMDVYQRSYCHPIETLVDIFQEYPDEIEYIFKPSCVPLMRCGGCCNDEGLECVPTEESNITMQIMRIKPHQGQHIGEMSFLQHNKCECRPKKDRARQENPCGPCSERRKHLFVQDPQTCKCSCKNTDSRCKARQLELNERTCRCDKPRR
The test can be described thus: VEGF-A induced sprouting of HUVEC, spheroid-based cellular angiogenesis assay. The conditions noted are these: VEGF-A 25 ng/mL preincubated with compound, 24 h, read-out: VEGF-A1 IC50. The method, then:
Aim of this in vitro method is to assess compounds effects on FGF-2, FGF-1, or VEGF-A induced sprouting of human umbilical vein endothelial cells (HUVEC) in the spheroid-based cellular angiogenesis assay. Before adding the growth factors to the cells, they were preincubated with the compound. Sunitinib was tested as a control (without preincubation).
IC50 values determined for the tested compounds are expressed in microM [μM] and the values for the inhibition of FGF-1, FGF2 and VEGF-A induced growth (sprouting) are listed after each compound in the examples after chemical characterization.
Sprouting test was performed on the compounds dissolved in DMSO to reach 100-fold concentrated stock solutions and dissolved in culture media. Sunitinib as reference compound was provided by ProQinase GmbH. Growth factors were purchased from rhFGF-basic (FGF-2), Peprotech, New Jersey, USA, #100-18C, Lot #0415571; rhFGF-acidic (FGF-1), Peprotech, New Jersey, USA, #100-17A, Lot #031207; hVEGF-A165 (ProQinase GmbH, Freiburg, Germany; 05.02.2010) were used for stimulation of HUVEC cells growth.
Test system: Endothelial cells from human umbilical vein (HUVEC) from pooled donors were stored frozen with 70% medium, 20% FCS, 10% DMSO at about 1×10^6 cells/ampoule. HUVEC cells, primary human umbilical vein endothelial cells (PromoCell, Heidelberg, Germany), were used after passage 3 to 4. Morphology of the cells are adherent, cobblestone-like growing as monolayer and were cultured in endothelial cell growth and basal medium (ECGM/ECBM, PromoCell). The subculture was split 1:3; every 3-5 days, seed out at ca. 1×10^4 cells/cm^2 and incubated at 37° C. with 5% CO2 with a doubling time 24-48 hours
Dilution of test compounds: 100× concentrated solutions (concerning to the final assay concentrations) of each test compound were prepared with the appropriate solvent (in DMSO or in water). These 100×compound solutions were further diluted in endothelial cell growth and basal medium (ECBM) 1:7.5 to get a 13.33× concentrated solution. 75 μl of the 13.33×solution was subsequently mixed with 25 μl of 40× concentrated stimulus (solved in ECBM), resulting in a 10×concentrated stimulus/compound mixture. This mixture (100 μl) was incubated for 30 min at 37° C. and then added to 900 μl gel, containing the HUVEC spheroids (resulting in the final assay concentration).
Test method: the experiments were pursued in modification of the originally published protocol (Korff and Augustin: J Cell Sci 112: 3249-58, 1999). In brief, spheroids were prepared as described (Korff and Augustin: J Cell Biol 143: 1341-52, 1998) by pipetting 400 HUVEC in a hanging drop on plastic dishes to allow overnight spheroid aggregation. 50 HUVEC spheroids were then seeded in 0.9 ml of a collagen gel and pipetted into individual wells of a 24 well plate to allow polymerization. The test compounds were preincubated with the growth factors (FGF-1, FGF-2 or VEGF-A final concentration 25 ng/mL) in a 10-fold concentrated solution and subsequently, 100 μl of this solution was added on top of the polymerized gel. All compounds were diluted in solvent (DMSO or water) as 100×stocks first (which means 100×stocks of each final assay concentration were prepared in solvent). Subsequently, these stocks were further diluted in medium (resulting in the 13.33×stocks of each final assay concentration) with final concentrations tested: 100, 50, 25, 12.5, 6.25, 3.13 and 1.56×10^−6 M). Plates were incubated at 37° C. for 24 hours and fixed by adding 4% PFA (Roth, Karlsruhe, Germany).
Quantification of growth factor inhibition: sprouting intensity of HUVEC spheroids treated with the growth factor and the inhibitors were quantitated by an image analysis system determining the cumulative sprout length per spheroid (CSL).

For the next test, the target named is T2, FGF-2 (Homo sapiens, UniProt P09038).
T2 construct: purchased Peprotech 100-18C
T2 sequence (P09038 134-288): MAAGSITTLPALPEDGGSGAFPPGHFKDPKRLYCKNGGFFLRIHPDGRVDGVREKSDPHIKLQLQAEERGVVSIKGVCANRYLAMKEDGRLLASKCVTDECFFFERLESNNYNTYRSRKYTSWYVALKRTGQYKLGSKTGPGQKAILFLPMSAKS
The test can be described thus: FGF-2 induced sprouting of HUVEC, spheroid-based cellular angiogenesis assay. The conditions noted are these: FGF-2 25 ng/mL preincubated with compound, 24 h. Put shortly:
(§1)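 Compound (final 100 down to 1.56×10^−6 M) was mixed with growth factor (final 25 ng/mL) for 30 min at 37°C, then added onto collagen-embedded 400-cell HUVEC spheroids.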

Another test has as its target T3, FGF-1 (Homo sapiens, UniProt P05230).
T3 construct: purchased Peprotech 100-17A
Put plainly: FGF-1 induced sprouting of HUVEC, spheroid-based cellular angiogenesis assay. The note with it: FGF-1 25 ng/mL preincubated with compound, 24 h. Put shortly:
as §1

In another test the target is T4, VEGFR-2 (Homo sapiens, UniProt P35968).
T4 construct: endogenous in cells; host or cells: primary HUVEC
T4 sequence (P35968 20-1356): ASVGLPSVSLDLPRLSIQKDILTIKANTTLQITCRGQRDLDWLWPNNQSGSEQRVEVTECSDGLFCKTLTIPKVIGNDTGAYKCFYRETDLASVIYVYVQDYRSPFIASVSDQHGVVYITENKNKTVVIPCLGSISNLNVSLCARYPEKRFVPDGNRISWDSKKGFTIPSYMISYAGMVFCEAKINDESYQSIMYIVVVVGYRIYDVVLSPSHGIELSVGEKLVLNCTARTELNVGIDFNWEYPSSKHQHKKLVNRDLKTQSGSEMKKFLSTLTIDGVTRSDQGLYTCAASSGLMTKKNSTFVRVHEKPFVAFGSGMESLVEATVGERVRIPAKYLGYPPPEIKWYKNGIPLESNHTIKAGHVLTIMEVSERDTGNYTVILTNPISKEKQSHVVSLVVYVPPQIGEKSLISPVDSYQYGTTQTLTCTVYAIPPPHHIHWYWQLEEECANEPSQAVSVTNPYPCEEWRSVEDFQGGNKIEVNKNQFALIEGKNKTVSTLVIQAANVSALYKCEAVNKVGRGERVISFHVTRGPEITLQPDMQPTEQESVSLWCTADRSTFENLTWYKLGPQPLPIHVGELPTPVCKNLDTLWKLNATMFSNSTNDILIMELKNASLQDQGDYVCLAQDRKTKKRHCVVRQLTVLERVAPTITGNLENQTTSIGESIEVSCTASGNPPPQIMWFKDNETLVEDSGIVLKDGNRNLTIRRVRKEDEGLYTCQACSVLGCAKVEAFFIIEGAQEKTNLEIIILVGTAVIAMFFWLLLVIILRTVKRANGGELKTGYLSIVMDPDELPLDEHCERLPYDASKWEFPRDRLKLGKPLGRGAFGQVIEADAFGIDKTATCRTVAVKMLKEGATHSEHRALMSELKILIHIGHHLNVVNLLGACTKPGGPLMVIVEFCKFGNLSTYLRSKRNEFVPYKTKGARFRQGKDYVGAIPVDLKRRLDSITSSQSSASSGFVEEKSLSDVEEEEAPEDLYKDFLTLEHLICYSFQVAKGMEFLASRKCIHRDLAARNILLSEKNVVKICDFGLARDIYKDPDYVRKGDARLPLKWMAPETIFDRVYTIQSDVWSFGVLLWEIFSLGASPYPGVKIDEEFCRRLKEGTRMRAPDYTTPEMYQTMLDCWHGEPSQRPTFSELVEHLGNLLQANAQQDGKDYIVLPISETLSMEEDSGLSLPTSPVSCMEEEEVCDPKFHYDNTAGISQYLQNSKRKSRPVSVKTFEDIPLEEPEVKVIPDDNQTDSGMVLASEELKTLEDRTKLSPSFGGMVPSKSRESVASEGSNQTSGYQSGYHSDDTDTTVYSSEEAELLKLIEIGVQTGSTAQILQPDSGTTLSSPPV
The test can be described thus: VEGF-165 induced phosphorylation of VEGF-Receptor on HUVEC. The conditions noted are these: HUVEC preincubated 60 min, VEGF165 25 ng/mL 2 min; read-out: VEGFR-Phosphorylation inhibition IC50.

T3 sequence (P05230 whole entry): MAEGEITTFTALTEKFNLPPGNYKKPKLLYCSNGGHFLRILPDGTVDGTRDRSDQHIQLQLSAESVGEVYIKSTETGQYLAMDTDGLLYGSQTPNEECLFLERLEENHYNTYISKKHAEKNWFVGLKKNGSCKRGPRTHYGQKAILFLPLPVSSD

The compound `CCOC(=O)Cc1cc(O)c(C(=O)Nc2ccccc2C(=O)OC)cc1O` [IIIa-001a-E2, methyl 2-(4-(ethoxycarbonylmethyl)-2,5-dihydroxybenzamido)benzoate] came in with a Neutrophil adhesion inhibition in the test on Human neutrophils [1] of 44.46%. For the same compound, at 0.3 µM the inhibition in the test on Human neutrophils [2] was 69.7%. Further, the IC50 (as a rule, the midpoint of a concentration-inhibition curve) on VEGF-A was 43 µM; on FGF-2, 33 µM; at FGF-1, ≥ 200 µM.
Turning to `CCOC(=O)c1cc(O)c(C(=O)Nc2ccccc2-c2nnn[nH]2)cc1O` [Ia-001a-Tz-E1, ethyl 4-(2-(1H-tetrazol-5-yl)phenylaminocarbonyl)-2,5-dihydroxybenzoate], the Neutrophil adhesion inhibition in the test on Human neutrophils [1] is 98.88%. Further, 0.3 µM produced 76% inhibition in the test with Human neutrophils [2]. The IC50 is ≥ 200 µM at VEGF-A, ≥ 200 µM on FGF-2, ≥ 200 µM on FGF-1 and 3.8 µM at VEGFR-2.
In the test with Human neutrophils [1], `O=C(O)c1cc(O)c(C(=O)Nc2ccc(C(=O)O)c(C(=O)O)c2)cc1O` [Ia-014a, 4-(4-carboxy-2,5-dihydroxybenzamido)phthalic acid] returned a Neutrophil adhesion inhibition of 9.667%. For the same compound, the inhibition – broadly, the drop in the measured response relative to a control, in per cent – at 0.3 µM in the test with Human neutrophils [2] was 61.3%. Also, the IC50 in the test on Human neutrophils [2] is 1 µM; at VEGF-A, 88 µM; on FGF-2, 20 µM; at FGF-1, 20 µM; on VEGFR-2, ≥ 100 µM.
Consider `O=C(O)c1cc(O)c(C(=O)NC(Cc2ccc(O)c(O)c2)C(=O)O)cc1O` (centres unmarked) [Ia-035a-3, 4-(1-Carboxy-2-(3,4-dihydroxyphenyl)ethylaminocarbonyl)-2,5-dihydroxybenzoic acid], for which the Neutrophil adhesion inhibition with Human neutrophils [1] stood at 22%. In addition, at 0.3 µM the inhibition with Human neutrophils [2] was 79.6%. For the same compound, the half-inhibitory concentration (IC50) was found to be 0.66 µM in the test with Human neutrophils [2]; 198 µM at VEGF-A; 207 µM at FGF-2; 34 µM at FGF-1; 10 µM at VEGFR-2.
`O=C(O)Cc1cc(O)c(C(=O)Nc2ccccc2C(=O)O)cc1O` [IIIa-001a, 2-(4-(carboxymethyl)-2,5-dihydroxybenzamido)benzoic acid]: in the test with Human neutrophils [1], the Neutrophil adhesion inhibition came out at 30.4%. The compound also came in with an inhibition at 0.3 µM in the test with Human neutrophils [2] of 74.8%. The IC50 at VEGF-A was determined as 32 µM; at FGF-2, 10 µM; on FGF-1, 62 µM.
In the same order, the values of `O=C(O)c1cc(NC(=O)c2cc(O)cc(C(=O)O)c2O)cc(NC(=O)c2cc(O)cc(C(=O)O)c2O)c1` [IIb-010a, 3,5-Bis(2,5-dihydroxy-3-carboxybenzoylamino)benzoic acid] are 59.84%, 81.9%, 28 µM, 102 µM and ≥ 200 µM.
Compound `O=C(O)c1cc(O)c(C(=O)Nc2c(C(=O)O)cccc2C(=O)O)cc1O` [Ia-013a, 2-(4-carboxy-2,5-dihydroxybenzamido)isophthalic acid] came in with a Neutrophil adhesion inhibition with Human neutrophils [1] of 27.67%. Besides, the inhibition at 0.3 µM with Human neutrophils [2] turned out to be 38.5%. The IC50 with Human neutrophils [2] was 2.38 µM; at VEGF-A, 17 µM; on FGF-2 it was 18 µM; at FGF-1 it was 29 µM; at VEGFR-2 it was ≥ 100 µM.
With `O=C(O)c1cc(O)cc(C(=O)NCc2ccc(O)c(O)c2)c1O` [IIa-035a, 3-(3,4-Dihydroxyphenylmethylaminocarbonyl)-2,5-dihydroxybenzoic acid], in the test with Human neutrophils [1], the Neutrophil adhesion inhibition was found to be 36.67%. This compound also showed an inhibition at 0.3 µM in the test with Human neutrophils [2] of 77%. Besides, the IC50 turned out to be 1 µM in the test on Human neutrophils [2]; 45 µM on VEGF-A; 61 µM on FGF-2; 16 µM on FGF-1; 0.52 µM at VEGFR-2.
The compound `O=C(O)c1cc(O)c(C(=O)Nc2cccc(-c3nnn[nH]3)c2)cc1O` [Ia-002a-Tz, 4-(3-(1H-tetrazol-5-yl)phenyl-aminocarbonyl)-2,5-dihydroxybenzoic acid] returned a Neutrophil adhesion inhibition with Human neutrophils [1] of 38.5%. This compound came in with an inhibition at 0.3 µM in the test on Human neutrophils [2] of 66.6%. For the same compound, the IC50 in the test on Human neutrophils [2] is 1.86 µM; on VEGF-A, 57 µM; at FGF-2, 53 µM; on FGF-1, 10 µM; at VEGFR-2, ≥ 100 µM.
In the test on Human neutrophils [1], `O=C(O)c1cc(O)c(C(=O)Nc2ccc(O)cc2C(=O)O)cc1O` [Ia-006a, 4-(2-carboxy-4-hydroxyphenylaminocarbonyl)-2,5-dihydroxybenzoic acid] yielded a Neutrophil adhesion inhibition of 25.33%. Moreover, in the test with Human neutrophils [2], the inhibition at 0.3 µM was 60.6%. Further, the IC50 in the test on Human neutrophils [2] was 1.2 µM; at VEGF-A, ≥ 100 µM; at FGF-1, 89 µM; at VEGFR-2, 11.8 µM.
For the compound `CCOC(=O)c1cc(OC(C)=O)c(C(=O)Nc2ccccc2-c2nnn[nH]2)cc1OC(C)=O` [Ia-001a-Tz-E1-A2, ethyl 4-(2-(1H-tetrazol-5-yl)phenylaminocarbonyl)-2,5-diacetoxybenzoate], the Neutrophil adhesion inhibition in the test on Human neutrophils [1] was 98.2%. The inhibition at 0.3 µM in the test on Human neutrophils [2] was 49.9%. The IC50 on VEGF-A was ≥ 200 µM; at FGF-2, ≥ 200 µM; at FGF-1 it was 60 µM.
Take `COC(=O)c1cc(NC(=O)c2cc(O)c(C(=O)Nc3ccccc3-c3nnn[nH]3)cc2O)ccc1O` [Ic-001a-Tz/004a-E1, methyl 5-(4-(2-(1H-tetrazol-5-yl)phenylaminocarbonyl)-2,5-dihydroxybenzamido)-2-hydroxybenzoate]: the Neutrophil adhesion inhibition with Human neutrophils [1] turned out to be 97.56%. The inhibition at 0.3 µM with Human neutrophils [2] was found to be 74%. Further, the IC50 on VEGF-A is 35 µM; at FGF-1, 104 µM; on VEGFR-2, 0.1 µM.
In the case of `O=C(Nc1ccc(O)cc1C(=O)O)c1cc(O)c(C(=O)Nc2ccc(O)cc2C(=O)O)cc1O` [Ic-009a, 2-(2,5-dihydroxy-4-(4-hydroxy-2-carboxyphenylaminocarbonyl)benzamido)-5-hydroxy benzoic acid], the Neutrophil adhesion inhibition in the test with Human neutrophils [1] was determined as 72.21%. Also, the inhibition at 0.3 µM in the test on Human neutrophils [2] amounted to 72.8%. The IC50 on VEGF-A was determined as 208 µM; on FGF-2 it was 202 µM; on FGF-1, 32 µM.
